{
  "source": "ChEMBL document CHEMBL4002585",
  "about": "“Novel CLK1 inhibitors based on N-aryloxazol-2-amine skeleton - A possible way to dual VEGFR2 TK/CLK ligands” (Eur J Med Chem, 2017)",
  "key": {"[1]": {"target": "Dual specificity tyrosine-phosphorylation-regulated kinase 1A (Homo sapiens, UniProt Q13627)", "assay": "Inhibition of DYRK1A (unknown origin) using substrate after 30 mins in presence of [gamma-33P]ATP by liquid scintillation counting"}, "[2]": {"target": "T1, Dual specificity protein kinase CLK1 (Homo sapiens, UniProt P49759)", "T1 sequence (P49759 whole entry)": "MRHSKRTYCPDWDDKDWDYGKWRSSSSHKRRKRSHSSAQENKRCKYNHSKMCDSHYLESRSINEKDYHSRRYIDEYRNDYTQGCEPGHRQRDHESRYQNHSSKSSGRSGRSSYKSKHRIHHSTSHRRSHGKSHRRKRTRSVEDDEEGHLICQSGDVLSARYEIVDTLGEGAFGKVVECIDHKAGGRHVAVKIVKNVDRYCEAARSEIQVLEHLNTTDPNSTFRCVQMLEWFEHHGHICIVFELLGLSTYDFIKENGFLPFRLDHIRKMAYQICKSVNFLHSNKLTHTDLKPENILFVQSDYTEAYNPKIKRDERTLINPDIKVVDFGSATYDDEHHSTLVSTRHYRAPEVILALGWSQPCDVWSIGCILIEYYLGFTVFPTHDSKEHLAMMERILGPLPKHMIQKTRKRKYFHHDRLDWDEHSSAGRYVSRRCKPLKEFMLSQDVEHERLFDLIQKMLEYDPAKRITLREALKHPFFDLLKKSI", "assay": "Inhibition of human CLK1 using substrate after 30 mins in presence of [gamma-33P]ATP by liquid scintillation counting"}, "[3]": {"assay": "Inhibition of Leishmania major strain Friedlin fusion protein GSK3 using Biotin-labeled GSP-2 peptide substrate after 90 mins in presence of [gamma33-P]ATP by scintillation proximity assay"}, "[4]": {"target": "T1, Dual specificity protein kinase CLK1", "assay": "Inhibition of human CLK1 (148 to 484 residues) expressed in Escherichia coli BL21(DE3) preincubated for 10 mins followed by AFRREWSPGKEAKK substrate addition by pyruvate kinase and lactate dehydrogenase coupled enzyme assay"}, "[5]": {"assay": "Inhibition of Trypanosoma brucei GSK3 using Biotin-labeled GSP-2 peptide substrate after 90 mins in presence of [gamma33-P]ATP by scintillation proximity assay"}, "[6]": {"assay": "Inhibition of Leishmania infantum MHOM/BR/82/BA-2 N-terminal His6-tagged GSK3 expressed in Escherichia coli BL21(DE3) using Biotin-labeled GSP-2 peptide substrate after 90 mins in presence of [gamma33-P]ATP by scintillation proximity assay"}, "[7]": {"assay": "Inhibition of Leishmania major strain Friedlin endogenous GSK3 using Biotin-labeled GSP-2 peptide substrate after 90 mins in presence of [gamma33-P]ATP by scintillation proximity assay"}, "[8]": {"assay": "Inhibition of Leishmania major strain Friedlin N-terminal His6-tagged GSK3 expressed in Escherichia coli BL21(DE3) using Biotin-labeled GSP-2 peptide substrate after 90 mins in presence of [gamma33-P]ATP by scintillation proximity assay"}, "[9]": {"assay": "Inhibition of GSK3 (unknown origin) using substrate after 30 mins in presence of [gamma-33P]ATP by liquid scintillation counting", "design": "species or system Homo sapiens"}, "[10]": {"target": "Glycogen synthase kinase-3 (Homo sapiens, UniProt P49840+P49841)", "assay": "Inhibition of GSK3 alpha/beta (unknown origin) using substrate after 30 mins in presence of [gamma-33P]ATP by liquid scintillation counting", "format": "protein assay"}, "[11]": {"target": "CDK9/cyclin T1 (Homo sapiens, UniProt P50750)", "sequence (O60563 whole entry)": "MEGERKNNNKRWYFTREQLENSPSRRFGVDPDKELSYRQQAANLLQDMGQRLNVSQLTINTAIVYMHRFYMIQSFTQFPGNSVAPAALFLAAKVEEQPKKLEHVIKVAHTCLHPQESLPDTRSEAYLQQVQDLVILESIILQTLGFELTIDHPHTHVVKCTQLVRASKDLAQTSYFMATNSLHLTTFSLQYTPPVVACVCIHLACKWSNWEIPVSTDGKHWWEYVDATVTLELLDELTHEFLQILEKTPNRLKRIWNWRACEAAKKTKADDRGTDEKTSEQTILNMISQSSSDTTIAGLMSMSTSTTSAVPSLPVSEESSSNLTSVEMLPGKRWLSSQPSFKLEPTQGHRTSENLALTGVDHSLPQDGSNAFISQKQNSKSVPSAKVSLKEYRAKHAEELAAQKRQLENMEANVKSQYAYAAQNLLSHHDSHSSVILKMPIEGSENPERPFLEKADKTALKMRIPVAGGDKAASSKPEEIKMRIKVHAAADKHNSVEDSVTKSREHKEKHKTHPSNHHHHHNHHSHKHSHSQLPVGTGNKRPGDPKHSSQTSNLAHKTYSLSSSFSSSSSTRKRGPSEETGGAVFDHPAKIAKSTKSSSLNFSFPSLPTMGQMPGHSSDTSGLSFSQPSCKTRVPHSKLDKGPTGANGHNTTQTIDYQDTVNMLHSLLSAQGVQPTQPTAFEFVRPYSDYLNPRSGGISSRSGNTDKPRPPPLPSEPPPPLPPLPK", "sequence (P50750 whole entry)": "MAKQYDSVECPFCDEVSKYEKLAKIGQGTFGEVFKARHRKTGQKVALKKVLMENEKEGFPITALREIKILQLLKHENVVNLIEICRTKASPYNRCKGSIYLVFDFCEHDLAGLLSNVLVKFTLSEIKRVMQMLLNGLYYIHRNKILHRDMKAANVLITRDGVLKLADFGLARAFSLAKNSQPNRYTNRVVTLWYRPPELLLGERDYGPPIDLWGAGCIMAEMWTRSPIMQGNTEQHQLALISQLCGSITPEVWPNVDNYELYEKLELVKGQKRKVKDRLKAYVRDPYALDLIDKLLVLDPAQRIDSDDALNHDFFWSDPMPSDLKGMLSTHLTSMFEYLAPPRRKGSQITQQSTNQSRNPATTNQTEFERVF", "assay": "Inhibition of CDK9/CyclinT (unknown origin) using substrate after 30 mins in presence of [gamma-33P]ATP by liquid scintillation counting", "format": "protein-complex assay"}, "[12]": {"target": "Vascular endothelial growth factor receptor 2 (Homo sapiens, UniProt P35968)", "sequence (P35968 whole entry)": "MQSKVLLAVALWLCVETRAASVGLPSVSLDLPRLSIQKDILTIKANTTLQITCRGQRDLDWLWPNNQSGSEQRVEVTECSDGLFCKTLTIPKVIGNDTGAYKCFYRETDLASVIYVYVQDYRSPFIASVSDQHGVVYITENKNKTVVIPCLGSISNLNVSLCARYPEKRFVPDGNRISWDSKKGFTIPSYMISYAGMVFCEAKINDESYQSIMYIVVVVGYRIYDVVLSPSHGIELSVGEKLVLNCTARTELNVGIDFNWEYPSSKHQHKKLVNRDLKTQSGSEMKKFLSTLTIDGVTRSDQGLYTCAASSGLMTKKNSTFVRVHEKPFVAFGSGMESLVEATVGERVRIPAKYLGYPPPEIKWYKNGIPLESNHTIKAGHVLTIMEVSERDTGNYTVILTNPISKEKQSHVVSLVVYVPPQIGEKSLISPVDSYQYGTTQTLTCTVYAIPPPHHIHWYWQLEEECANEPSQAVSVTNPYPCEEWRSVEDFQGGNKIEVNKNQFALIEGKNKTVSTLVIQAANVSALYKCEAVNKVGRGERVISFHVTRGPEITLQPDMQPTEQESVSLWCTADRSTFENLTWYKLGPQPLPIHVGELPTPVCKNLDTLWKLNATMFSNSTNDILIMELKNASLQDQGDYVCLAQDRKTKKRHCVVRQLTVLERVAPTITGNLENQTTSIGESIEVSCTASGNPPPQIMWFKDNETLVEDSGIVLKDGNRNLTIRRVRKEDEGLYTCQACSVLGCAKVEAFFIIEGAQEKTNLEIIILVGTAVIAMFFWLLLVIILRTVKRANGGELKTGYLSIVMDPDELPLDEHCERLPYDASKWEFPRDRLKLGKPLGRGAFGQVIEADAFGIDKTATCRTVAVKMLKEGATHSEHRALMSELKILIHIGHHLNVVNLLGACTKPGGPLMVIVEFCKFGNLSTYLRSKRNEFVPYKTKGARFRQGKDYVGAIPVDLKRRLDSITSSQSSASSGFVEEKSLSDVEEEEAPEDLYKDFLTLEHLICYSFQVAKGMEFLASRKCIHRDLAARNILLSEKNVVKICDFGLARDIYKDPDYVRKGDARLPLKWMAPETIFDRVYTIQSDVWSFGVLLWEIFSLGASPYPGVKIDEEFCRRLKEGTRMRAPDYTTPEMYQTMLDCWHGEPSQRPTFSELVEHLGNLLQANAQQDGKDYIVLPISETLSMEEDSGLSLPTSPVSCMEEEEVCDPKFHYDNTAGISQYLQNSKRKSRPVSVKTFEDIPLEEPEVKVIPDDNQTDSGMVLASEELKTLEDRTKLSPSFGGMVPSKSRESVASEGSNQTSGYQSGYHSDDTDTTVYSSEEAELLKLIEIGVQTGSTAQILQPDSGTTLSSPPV", "assay": "Inhibition of VEGFR2 (unknown origin) using substrate after 30 mins in presence of [gamma-33P]ATP by liquid scintillation counting"}},
  "data": [
    {"smiles": "CCS(=O)(=O)c1ccc(OC)c(Nc2ncc(-c3ccc4cc(OC)ccc4c3)o2)c1", "values": [
      {"measurement": "IC50", "setting": "[1]", "result": 1000, "unit": "nM"},
      {"measurement": "IC50", "setting": "[2]", "result": 20, "unit": "nM"}
    ]},
    {"smiles": "Nc1nc(Nc2ccc(S(N)(=O)=O)cc2)nn1C(=S)Nc1c(F)cccc1F", "values": [
      {"measurement": "IC50", "setting": "[3]", "result": 150, "unit": "nM"},
      {"measurement": "IC50", "setting": "[4]", "result": 8.9, "unit": "nM"},
      {"measurement": "IC50", "setting": "[5]", "result": 120, "unit": "nM"},
      {"measurement": "IC50", "setting": "[6]", "result": 260, "unit": "nM"},
      {"measurement": "IC50", "setting": "[7]", "result": 180, "unit": "nM"},
      {"measurement": "IC50", "setting": "[8]", "result": 320, "unit": "nM"}
    ]},
    {"smiles": "CCS(=O)(=O)c1ccc(OC)c(Nc2ncc(/C=C/c3ccccc3)o2)c1", "values": [
      {"measurement": "IC50", "setting": "[1]", "result": 7000, "unit": "nM"},
      {"measurement": "IC50", "setting": "[9]", "result": 4000, "unit": "nM"},
      {"measurement": "IC50", "setting": "[10]", "result": 7500, "unit": "nM"},
      {"measurement": "IC50", "setting": "[11]", "result": 200, "unit": "nM"},
      {"measurement": "IC50", "setting": "[2]", "result": 40, "unit": "nM"}
    ]},
    {"smiles": "CCS(=O)(=O)c1ccc(OC)c(Nc2ncc(-c3cc4ccccc4s3)o2)c1", "values": [
      {"measurement": "IC50", "setting": "[1]", "result": 500, "unit": "nM"},
      {"measurement": "IC50", "setting": "[2]", "result": 30, "unit": "nM"}
    ]},
    {"smiles": "CCS(=O)(=O)c1ccc(OC)c(Nc2ncc(-c3ccc(CC#N)c(-c4ccccn4)c3)o2)c1", "values": [
      {"measurement": "IC50", "setting": "[12]", "result": 23, "unit": "nM"},
      {"measurement": "IC50", "setting": "[2]", "result": 80, "unit": "nM"}
    ]}
  ]
}
